Measured values as given in US7897582B2, “Oligonucleotide compositions and methods for the modulation of the expression of B7 protein” (Isis Pharmaceuticals, Inc., priority 2003, dated 2011).
Strand notation (5' to 3'): a small letter for the sugar, then the base; units joined by * are phosphorothioate-linked, units joined directly phosphodiester-linked; [ ] holds rarer units or linkages, { } end groups; capitals alone tell only the bases. e = 2'-O-(2-methoxyethyl) (MOE); [5mC] = 5-methylcytosine; d = 2'-deoxy (DNA)

How the values were obtained:
Type in all cases: cell-based
Mouse B7-1 mRNA = Mouse B7-1 mRNA expression, screened as in Example 4; parameters: % mRNA INHIBITION: concentration or dose not given beside the values; conditions: Table 10
Mouse B7-2 mRNA = Mouse B7-2 mRNA expression, screened as in Example 4; parameters: % mRNA INHIBITION: concentration or dose not given beside the values; conditions: for % mRNA INHIBITION: screened as in Example 4; for % mRNA EXPRESSION: screened as in Example 4, basal = 100.0%
Method: For ribonuclease protection assays, cells were harvested 18 hours after completion of oligonucleotide treatment using a Totally RNA™ kit (Ambion, Austin, Tex.). The probes for the assay were generated from plasmids pcB7-2 (linearized by digestion with Bgl II) and pTRI-b-actin (Ambion Inc., Austin, Tex.). In vitro transcription of the linearized plasmid from the SP6 promoter was performed in the presence of α-^32P-UTP (800 Ci/mmole) yielding an antisense RNA complementary to the 3′ end of B7-2 (position 1044-1391). The probe was gel-purified after treatment with DNase I to remove DNA template. Ribonuclease protection assays were carried out using an RPA II™ kit (Ambion) according to the manufacturer's directions. Total RNA (5 μg) was hybridized overnight, at 42° C., with 10^5 cpm of the B7-2 probe or a control beta-actin probe. The hybridization reaction was then treated, at 37° C. for 30 minutes, with 0.4 units of RNase A and 2 units of RNase T1. Protected RNA was precipitated, resuspended in 10 μL of gel loading buffer and electrophoresed on a 6% acrylamide gel with 50% w/v urea at 20 W. The gel was then exposed and the lanes quantitated using a PhosphorImager (Molecular Dynamics, Sunnyvale, Calif.) essentially according to the manufacturer's instructions.
Oligonucleotides were screened as described in Example 4.

human B7-1 = test: Cell surface expression of B7-1 in pcB7-1-transfected COS-7 cells by flow cytometry; conditions: human B7 cell surface expression; Table 16
Method: The ability of oligonucleotides to inhibit B7-1 expression was evaluated by measuring the cell surface expression of B7-1 in transfected COS-7 cells by flow cytometry.
A T-175 flask was seeded at 75% confluency with COS-7 cells (ATCC accession No. CRL 1651). The plasmid pcB7-1 was introduced into cells by standard calcium phosphate transfection. Following a 4 hour transfection, the cells were trypsinized and seeded in 12-well dishes at 80% confluency. The cells were allowed to adhere to the plastic for 1 hour and were then washed with phosphate-buffered saline (PBS). OptiMEM™ (GIBCO-BRL, Gaithersburg, Md.) medium was added along with 15 μg/mL of Lipofectin™ (GIBCO-BRL, Gaithersburg, Md.) and oligonucleotide at the indicated concentrations. After four additional hours, the cells were washed with phosphate buffered saline (PBS) and incubated with fresh oligonucleotide at the same concentration in DMEM (Dulbecco et al., Virol., 1959, 8, 396; Smith et al., Virol., 1960, 12, 185) with 10% fetal calf sera (FCS).
In order to monitor the effects of oligonucleotides on cell surface expression of B7-1, treated COS-7 cells were harvested by brief trypsinization 24-48 hours after oligonucleotide treatment. The cells were washed with PBS, then resuspended in 100 μL of staining buffer (PBS, 0.2% BSA, 0.1% azide) with 5 μL conjugated anti-B7-1-antibody (i.e., anti-hCD80-FITC, Ancell, Bayport, Minn.; FITC: fluorescein isothiocyanate). The cells were stained for 30 minutes at 4° C., washed with PBS, resuspended in 300 μL containing 0.5% paraformaldehyde. Cells were harvested and the fluorescence profiles were determined using a flow cytometer.
B7 antisense oligonucleotides were tested for their effect on cell surface expression of both B7-1 and B7-2. Cell surface expression was measured as described in Example 1. Experiments were done for both human B7 and mouse B7.
The oligonucleotides were screened as described in Example 2 except that the concentration of oligonucleotide was varied as shown in Table 18.

human B7-2 = test: Cell surface expression of B7-2 in transfected COS-7 cells by flow cytometry; conditions: human B7 cell surface expression; Table 16
Summary of the method: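 COS-7 cells transfected with B7-2 plasmid (calcium phosphate), then treated with antisense oligonucleotides with 15 μg/mL Lipofectin for 4 h, followed by oligonucleotide in DMEM/10% FCS. After 24-48 h, cells stained with FITC- or PE-conjugated anti-CD86 for 30 min at 4 °C and analysed by flow cytometry.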

Human B7-1 mRNA = Human B7-1 mRNA expression in COS-7 cells, screened as in Example 4; conditions: human B7-1 mRNA; Table 7

Substance | % mRNA INHIBITION (Mouse B7-2 mRNA) [%] | % mRNA EXPRESSION (Mouse B7-2 mRNA) [%] | also measured
18108 (antisense eT*eG*eG*eG*eG*dA*dA*dA*dG*d[5mC]*d[5mC]*dA*dG*dG*dA*eA*eT*e[5mC]*eT*eA) [compound 18108] |  |  | % mRNA EXPRESSION (Mouse B7-1 mRNA): 82.0%; % mRNA INHIBITION (Mouse B7-1 mRNA): 18.0%
18096 (antisense eG*eT*e[5mC]*eT*e[5mC]*dT*d[5mC]*dT*dG*dT*d[5mC]*dA*dG*d[5mC]*dG*eT*eT*eA*e[5mC]*eT) [compound 18096] | 67.7 | 32.3 | 
18094 (antisense eG*eG*eG*eA*eA*dT*dG*dA*dA*dA*dG*dA*dG*dA*dG*eA*eG*eG*e[5mC]*eT) [compound 18094] | 36.2 | 63.8 | 
18101 (antisense eT*eT*eT*eT*eG*dT*dA*dT*dA*dA*dA*dA*d[5mC]*dA*dA*eT*e[5mC]*eA*eT*eA) [compound 18101] | 11.1 | 88.9 | 
18092 (antisense e[5mC]*eA*eT*e[5mC]*eT*dT*d[5mC]*dT*dT*dA*dG*dG*dT*dT*dT*e[5mC]*eG*eG*eG*eT) [compound 18092] | 41.1 | 58.9 | 
18098 (antisense eG*eG*eA*eT*eT*dG*d[5mC]*d[5mC]*dA*dA*dG*d[5mC]*d[5mC]*d[5mC]*dA*eT*eG*eG*eT*eG) [compound 18098] | 67.8 | 32.2 | 
18099 (antisense eG*e[5mC]*eA*eA*eT*dT*dT*dG*dG*dG*dG*dT*dT*d[5mC]*dA*eA*eG*eT*eT*e[5mC]) [compound 18099] | 33.2 | 66.8 | 
18085 (antisense eT*e[5mC]*eA*eA*eG*dT*d[5mC]*d[5mC]*dG*dT*dG*d[5mC]*dT*dG*d[5mC]*e[5mC]*eT*eA*e[5mC]*eA) [compound 18085] | 65.0 | 35.0 | 
18091 (antisense eG*eT*eG*eA*e[5mC]*d[5mC]*dT*dT*dG*d[5mC]*dT*dT*dA*dG*dA*e[5mC]*eG*eT*eG*e[5mC]) [compound 18091] | 62.9 | 37.1 | 
18086 (antisense eG*eT*e[5mC]*eT*eA*d[5mC]*dA*dG*dG*dA*dG*dT*d[5mC]*dT*dG*eG*eT*eT*eG*eT) [compound 18086] | 59.9 | 40.1 | 
18088 (antisense eT*e[5mC]*eA*e[5mC]*eA*d[5mC]*dT*dA*dT*d[5mC]*dA*dA*dG*dT*dT*eT*e[5mC]*eT*e[5mC]*eT) [compound 18088] | 47.7 | 52.3 | 
22324 (eG*eG*e[5mC]*e[5mC]*eA*dT*dA*dT*dA*dT*dT*d[5mC]*dA*dT*dG*eT*e[5mC]*e[5mC]*e[5mC]*e[5mC]; antisense) [compound 22324] |  |  | % B7-1 EXPRESSION (human B7-1): 37%; % B7-2 EXPRESSION (human B7-2): 91%; % mRNA EXPRESSION (Human B7-1 mRNA): 46%
